Data from patent publication US20240118263A1, “TARGET FOR SCREENING ANTI-TUMOR DRUG, USE THEREOF AND SCREENING METHOD THEREFOR” (SHENYANG FUYANG PHARMACEUTICAL TECHNOLOGY CO., LTD., priority 2019, published 2024).

How the values were obtained:
SELH = SELH (Homo sapiens (Human), UniProt Q8IZQ5); experiment: Drug affinity responsive target stability (DARTS) assay in LN229 cells; assay type: binding; details: LN229 lysate, ISP I 40 μg/mL, mass spectroscopy
Procedure: (2) To identify ISP I's molecular target, the inventors performed drug affinity responsive target stability (DARTS) assay in LN229 cells.
The inventors discovered that the binding of ISP I to its target proteins temporarily locks them into a stable conformational structure, which prevents their recognition by proteases. After evading protease degradation, the identity of ISP I's target proteins was determined using mass spectroscopy.
DARTS assay data were taken to identify the target of ISP I in vitro. For this assay, the invenots used the protocol published by Lomenick et al., Proc. Nat'l Acad. Sci. USA 106: 21984 (2009). Briefly, LN229 cells were lysed with M-PER (Pierce) supplemented with protease and phosphatase inhibitors. After centrifugation at 14,000 rpm for 15 min, lysates were diluted to the same final volume and protein concentration with M-PER and were dissolved in TNC buffer [50 mM Tris-HCl (pH 8.0), 50 mM NaCl, 10 mM CaCl2]. All steps were performed on ice or at 4° C. to help prevent premature protein degradation. […] Peptides were analyzed by LC/MS/MS on a Thermo LTQ-Orbitrap mass spectrometer with an Eksigent LC pump. For quantitative comparison of protein and peptide abundances, MS spectra were analyzed by means of the differential workflow of Rosetta Elucidator (Rosetta Inpharmatics).

[1] = tested on: SELH-deficient LN229 cells and RCC cells (786-O and RCC4); experiment: CCK8 assay in SELH-deficient (CRISPR/CAS9) cells; assay type: cell-based; details: CCK8, compared to wild-type cells
Description: SELH knockout LN229 cell lines and B16 were generated using the CRISPR/Cas9 technique described by Shalem et al., Science 343: 84 (2014). The gDNA for targeting SELH was designed as follows: Oligo 1, 5′-[…]-3′; Oligo 2, 5′-[…]-3′; the gDNA for targeting mouse SELH was designed as follows: Oligo 1, 5′-[…]-3′; Oligo 2, 5′-[…]-3′, and subcloned into Cas9 carrying vector (pX330). The two resultant plasmids and puromycin-expressing vector (pPGK-puro) were co-transfected at a ratio of 1:1:1 into LN229 or B16 cells using Lipofectamine 2000 (Invitrogen). Twenty-four hours later, the transfected cells were subjected to puromycin (Sigma) at 1 μg/mL for 7 days. One week after selection, the surviving clones were expanded, followed by extraction of total protein for standard western blotting analysis.

SELH, sequence (Q8IZQ5 whole entry): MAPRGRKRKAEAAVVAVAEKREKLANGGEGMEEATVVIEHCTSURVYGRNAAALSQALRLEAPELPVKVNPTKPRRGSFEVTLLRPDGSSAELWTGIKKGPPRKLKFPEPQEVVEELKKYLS

For CO[C@@H]1[C@@H](O[C@@H]2O[C@H](C)[C@@H](O[C@H]3C[C@@](C)(O)[C@@H](OC(=O)CC(C)C)[C@H](C)O3)[C@H](N(C)C)[C@H]2O)[C@@H](CC=O)C[C@@H](C)[C@@H](O[C@H]2CC[C@H](N(C)C)[C@@H](C)O2)/C=C/C=C/C[C@@H](C)OC(=O)C[C@H]1O [Isovalerylspiramycin I, 4″-isovalerylspiramycin I], which “target protein identified by DARTS” value (SELH) is on record?
Its value is “SELH was the most abundant primary protein”.

And the “response of SELH-deficient cells to treatment” value [1]?
The value was “SELH-deficient cells were resistant to ISP I treatment”.
